Converted amounts (≈) assume the structure as drawn. Counter-ions that a name gives are not always drawn. Like-named read-outs stand apart in the source and are kept apart here.

The results in this text go back to patent US7446102B2, “Antibacterial amide macrocycles IV” (priority 2004, dated 2008).

One experiment concerns S. aureus T17. Put plainly: Determination of the minimum inhibitory concentration (MIC), biphenomycin-resistant S. aureus T17. As to conditions: Staphylococcus aureus, biphenomycin-resistant strain, no visible bacterial growth, 18-24 h, 37° C., read-out: MIC S. aureus T17. Type of experiment: cell-based. How it is done:
(§1) Determination of the Minimum Inhibitory Concentration (MIC)
(§2) The minimum inhibitory concentration (MIC) is the minimum concentration of an antibiotic with which the growth of a test microbe is inhibited over 18-24 h. The inhibitor concentration can in these cases be determined by standard microbiological methods (see, for example, The National Committee for Clinical Laboratory Standards. Methods for dilution antimicrobial susceptibility tests for bacteria that grow aerobically; approved standard-fifth edition. NCCLS document M7-A5 [ISBN 1-56238-394-9]. NCCLS, 940 West Valley Road, Suite 1400, Wayne, Pa. 19087-1898 USA, 2000). The MIC of the compounds of the invention is determined in the liquid dilution test on the 96-well microtitre plate scale. The bacterial microbes are cultivated in a minimal medium (18.5 mM Na2HPO4, 5.7 mM KH2PO4, 9.3 mM NH4Cl, 2.8 mM MgSO4, 17.1 mM NaCl, 0.033 μg/ml thiamine hydrochloride, 1.2 μg/ml nicotinic acid, 0.003 μg/ml biotin, 1% glucose, 25 μg/ml of each proteinogenic amino acid with the exception of phenylalanine; [H.-P. Kroll; unpublished]) with the addition of 0.4% BH broth (test medium). In the case of Enterococcus facium L4001, heat-inactivated fetal calf serum (FCS; GibcoBRL, Germany) is added to the test medium in a final concentration of 10%. Overnight cultures of the test microbes are diluted to an OD578 of 0.001 (to 0.01 in the case of enterococci) in fresh test medium, and incubated 1:1 with dilutions of the test substances (1:2 dilution steps) in test medium (200 μl final volume). The cultures are incubated at 37° C. for 18-24 hours; enterococci in the presence of 5% CO2.
(§3) The lowest substance concentration in each case at which no visible bacterial growth occurred any more is defined as the MIC.
(§4) Alternative Method for Determining the Minimum Inhibitory Concentration (MIC)
(§5) The minimum inhibitory concentration (MIC) is the minimum concentration of an antibiotic with which the growth of a test microbe is inhibited over 18-24 h. The inhibitor concentration can in these cases be determined by standard microbiological methods with modified medium in an agar dilution test (see, for example, The National Committee for Clinical Laboratory Standards. Methods for dilution antimicrobial susceptibility tests for bacteria that grow aerobically; approved standard-fifth edition. NCCLS document M7-A5 [ISBN 1-56238-394-9]. NCCLS, 940 West Valley Road, Suite 1400, Wayne, Pa. 19087-1898 USA, 2000). The bacterial microbes are cultivated on 1.5% agar plates which contain 20% defibrinated horse blood. The test microbes, which are incubated overnight on Columbia blood agar plates (Becton-Dickinson), are diluted in PBS, adjusted to a microbe count of about […] and placed dropwise (1-3 μl) on test plates. The test substances comprise different dilutions of the test substances (1:2 dilution steps). The cultures are incubated at 37° C. in the presence of 5% CO2 for 18-24 hours.
(§6) The lowest substance concentration in each case at which no visible bacterial growth occurred any more is defined as the MIC and is reported in μg/ml.
The S. aureus strain T17 is isolated in vivo. CFW1 mice are infected intraperitoneally with 4×10^7 S. aureus 133 cells per mouse. 0.5 h after the infection, the animals are treated intravenously with 50 mg/kg biphenomycin B. The kidneys are removed from the surviving animals on day 3 after the infection. After homogenization of the organs, the homogenates are plated out as described for RN4220Bi^R on antibiotics-free and antibiotics-containing agar plates and incubated at 37° C. overnight. […] About 20 of these colonies are tested for the biphenomycin B MIC, and a colony with an MIC of >50 μM is selected for further cultivation, and the strain is referred to as T17.

For experiment [1], the target named is S. aureus 133 translation. Description: S. aureus in vitro transcription-translation assay (firefly luciferase, S30 extract). It is filed as biochemical. As to conditions: 50% inhibition of the translation of firefly luciferase. From the text:
In Vitro Transcription-Translation with S. aureus Extracts
Construction of an S. aureus Luciferase Reporter Plasmid
For the construction of a reporter plasmid which can be used in an in vitro transcription-translation assay from S. aureus the plasmid pBESTluc (Promega Corporation, USA) is used. The E. coli tac promoter present in this plasmid in front of the firefly luciferase is replaced by the capA1 promoter with appropriate Shine-Dalgarno sequence from S. aureus. The primers CAPFor 5′-[…] […] […]-3′ and CAPRev 5′-[…]-3′ are used for this. The primer CAPFor contains the capA1 promoter, the ribosome binding site and the 5′ region of the luciferase gene. After PCR using pBESTluc as template it is possible to isolate a PCR product which contains the firefly luciferase gene with the fused capA1 promoter. This is, after restriction with ClaI and HindIII, ligated into the vector pBESTluc which has likewise been digested with ClaI and HindIII. The resulting plasmid p1a is able to replicate in E. coli and be used as template in the S. aureus in vitro transcription-translation assay.
Preparation of S30 Extracts from S. aureus
Six liters of BHI medium are inoculated with a 250 ml overnight culture of an S. aureus strain and allowed to grow at 37° C. until the OD600 nm is 2-4. The cells are harvested by centrifugation and washed in 500 ml of cold buffer A (10 mM Tris acetate, pH 8.0, 14 mM magnesium acetate, 1 mM DTT, 1 M KCl). After renewed centrifugation, the cells are washed in 250 ml of cold buffer A with 50 mM KCl, and the resulting pellets are frozen at −20° C. for 60 min. The pellets are thawed on ice in 30 to 60 min and taken up in buffer B (10 mM Tris acetate, pH 8.0, 20 mM magnesium acetate, 1 mM DTT, 50 mM KCl) up to a total volume of 99 ml. 1.5 ml portions of lysostaphin (0.8 mg/ml) in buffer B are introduced into 3 precooled centrifuge cups and each is mixed with 33 ml of the cell suspension. The samples are incubated at 37° C., shaking occasionally, for 45 to 60 min, before 150 μl of a 0.5 M DTT solution are added. The lysed cells are centrifuged at 30 000×g and 4° C. for 30 min. The cell pellet is taken up in buffer B and then centrifuged again under the same conditions, and the collected supernatants are combined. The supernatants are centrifuged again under the same conditions, and 0.25 volumes of buffer C (670 mM Tris acetate, pH 8.0, 20 mM magnesium acetate, 7 mM Na3 phosphoenolpyruvate, 7 mM DTT, 5.5 mM ATP, 70 μM amino acids (complete from Promega), 75 μg of pyruvate kinase (Sigma, Germany))/ml are added to the upper ⅔ of the supernatant. The samples are incubated at 37° C. for 30 min. The supernatants are dialysed against 21 of dialysis buffer (10 mM Tris acetate, pH 8.0, 14 mM magnesium acetate, 1 mM DTT, 60 mM potassium acetate) in a dialysis tube with a 3500 Da cut-off with one buffer change at 4° C. overnight. The dialysate is concentrated to a protein concentration of about 10 mg/ml by covering the dialysis tube with cold PEG 8000 powder (Sigma, Germany) at 4° C. The S30 extracts can be stored in aliquots at −70° C.
Determination of the IC50 in the S. aureus In Vitro Transcription-Translation Assay
Inhibition of protein biosynthesis of the compounds can be shown in an in vitro transcription-translation assay. The assay is based on the cell-free transcription and translation of firefly luciferase using the reporter plasmid p1a as template and cell-free S30 extracts obtained from S. aureus. The activity of the resulting luciferase can be detected by luminescence measurement.
The amount of S30 extract or plasmid p1a respectively to be employed must be tested anew for each preparation in order to ensure an optimal concentration in the assay. 3 μl of the substance to be tested, dissolved in 5% DMSO, are introduced into an MTP. Then 10 μl of a suitably concentrated plasmid solution p1a are added. […]

A further experiment deals with S. aureus 133. Put plainly: Determination of the minimum inhibitory concentration (MIC), S. aureus 133. Type of experiment: cell-based. How it is done:
as §1, §2, §3, §4, §5, §6

For the next experiment, the system named is E. faecium L4001. Description: Determination of the minimum inhibitory concentration (MIC), E. faecium L4001. It is filed as cell-based. As to conditions: Enterococcus faecium. How it is done: as §1, §2, §3, §4, §5, §6
[2] abbreviates: Staphylococcus aureus, 133, no visible bacterial growth, 18-24 h, 37° C., read-out: MIC S. aureus 133.
Setting [3] is: L4001, no visible bacterial growth, 18-24 h, 37° C., 5% CO2, read-out: MIC E. faecium L4001.
[4] abbreviates: Staphylococcus aureus, 133, read-out: MIC S. aureus 133.
[5] abbreviates: L4001, read-out: MIC E. faecium L4001.

In the case of `NCCC[C@@H]1NC(=O)[C@@H](N)Cc2cc(ccc2O)-c2ccc(O)c(c2)C[C@@H](C(=O)N[C@H](CO)CNC(=O)[C@@H](N)CCCN)NC1=O` [Example 23], the minimum inhibitory concentration (MIC) (usually the lowest concentration found to suppress growth) with S. aureus T17 was found to be 1 µg/mL (≈ 1.56 µM); in the experiment with S. aureus 133 (setting [2]), 0.5 µg/mL (≈ 0.778 µM); in the experiment with E. faecium L4001 (setting [3]) it was 4 µg/mL (≈ 6.22 µM). Further, the half-inhibitory concentration (IC50) (as a rule, the concentration that gives 50% inhibition) in experiment [1] stood at 320 nM.

Take `NCCC[C@H](NC(=O)[C@@H]1Cc2cc(ccc2O)-c2ccc(O)c(c2)C[C@H](N)C(=O)N[C@@H](CCCN)C(=O)N1)C(=O)N[C@@H](CCN)C(=O)NCCN` [Example 13, (8S,11S,14S)-14-Amino-N-((1S)-4-amino-1-{[((1S)-3-amino-1-{[(2-aminoethyl)amino]carbonyl}propyl)amino]carbonyl}butyl)-11-(3-aminopropyl)-5,17-dihydroxy-10,13-dioxo-9,12-diazatricyclo[14.3.1.1^2,6]henicosa-1(20),2(21),3,5,16,18-hexaene-8-carboxamide pentahydrochloride]: the MIC with S. aureus T17 was 0.5 µg/mL; with S. aureus 133 (setting [4]) it was 0.5 µg/mL; with E. faecium L4001 (setting [5]), 16 µg/mL. The compound also displayed a concentration for half-maximal inhibition (IC50) in experiment [1] of 60 nM.

Consider `NCCC[C@H](NC(=O)[C@@H]1Cc2cc(ccc2O)-c2ccc(O)c(c2)C[C@H](N)C(=O)N[C@@H](CCCN)C(=O)N1)C(=O)NCCC[C@H](N)CC(=O)NCCN` [Example 10, (8S,11S,14S)-14-Amino-N-{(1S)-4-amino-1-[({(4R)-4-amino-6-[(2-aminoethyl)amino]-6-oxohexyl}amino)carbonyl]butyl}-1-(3-aminopropyl)-5,17-dihydroxy-10,13-dioxo-9,12-diazatricyclo[14.3.1.1^2,6]henicosa-1(20),2(21),3,5,16,18-hexaene-8-carboxamide pentahydrochloride], for which the MIC in the experiment on S. aureus T17 was 0.5 µg/mL; with S. aureus 133 (setting [2]), 0.5 µg/mL; with E. faecium L4001 (setting [3]) it was 8 µg/mL. Moreover, the 50% inhibitory concentration (IC50) in experiment [1] worked out at 70 nM.

As to `N=C(N)NCCC[C@H](NC(=O)[C@@H]1Cc2cc(ccc2O)-c2ccc(O)c(c2)C[C@H](N)C(=O)N[C@@H](CCCN)C(=O)N1)C(=O)NCCN` [Example 14, (8S,11S,14S)-14-Amino-N-((1S)-1-{[(2-aminoethyl)amino]carbonyl}-4-{[amino(imino)methyl]amino}butyl)-11-(3-aminopropyl)-5,17-dihydroxy-10,13-dioxo-9,12-diazatricyclo[14.3.1.1^2,6]henicosa-1(20),2(21),3,5,16,18-hexaene-8-carboxamide pentahydrochloride], the MIC in the experiment with S. aureus T17 came out at 2 µg/mL; in the experiment on S. aureus 133 (setting [4]) it was 1 µg/mL; in the experiment on E. faecium L4001 (setting [5]), 4 µg/mL. The 50% inhibitory concentration (IC50) in experiment [1] turned out to be 70 nM.

For the compound `NCCC[C@@H]1NC(=O)[C@@H](N)Cc2cc(ccc2O)-c2ccc(O)c(c2)C[C@@H](C(=O)N[C@@H](C[C@@H](O)CN)C(=O)NCCN)NC1=O` [Example 6, (8S,11S,14S)-14-Amino-N-((1S,3R)-4-amino-1-{[(2-aminoethyl)amino]carbonyl}-3-hydroxybutyl)-11-[3-aminopropyl]-5,17-dihydroxy-10,13-dioxo-9,12-diazatricyclo[14.3.1.1^2,6]henicosa-1(20),2(21),3,5,16,18-hexaene-8-carboxamide tetrahydrochloride], the figures for the minimum inhibitory concentration (MIC) with S. aureus T17, in the experiment with S. aureus 133 (setting [4]) and in the experiment with E. faecium L4001 (setting [5]) were 2 µg/mL, 1 µg/mL and 8 µg/mL, respectively. This compound came in with an IC50 in experiment [1] of 100 nM.

`NCCC[C@H](N)CNC(=O)[C@H](CCCN)NC(=O)[C@@H]1Cc2cc(ccc2O)-c2ccc(O)c(c2)C[C@H](N)C(=O)N[C@@H](CCCN)C(=O)N1` [Example 16, (8S,11S,14S)-14-Amino-N-[(1S)-4-amino-1-({[(2S)-2,5-diaminopentyl]amino}carbonyl)butyl]-11-(3-aminopropyl)-5,17-dihydroxy-10,13-dioxo-9,12-diazatricyclo[14.3.1.1^2,6]henicosa-1(20),2(21),3,5,16,18-hexaene-8-carboxamide tetrahydrochloride]: the MIC was 2 µg/mL with S. aureus T17, 2 µg/mL in the experiment on S. aureus 133 (setting [4]) and over 32 µg/mL in the experiment with E. faecium L4001 (setting [5]). For the same compound, in experiment [1], half-maximal inhibition (IC50) was put at 100 nM.
